Measured values reported in ChEMBL document CHEMBL1137881, “Synthesis of acyloxymethyl ester prodrugs of the transferable protein farnesyl transferase substrate farnesyl methylenediphosphonate” (Bioorg Med Chem Lett, 2004).

Molecular target: Protein farnesyltransferase (Homo sapiens, UniProt P49354+P49356)
Test: Inhibition of Farnesyltransferase
Type: protein-complex assay

With CC(C)=CCC/C(C)=C/CC/C(C)=C/COP(=O)(O)CP(=O)(O)O [FARNESYL METHYLENEDIPHOSPHONATE] the IC50 was 160 nM.
